From patent publication US11731967B2, “Inhibitors of TRIM33 and methods of use” (Dana-Farber Cancer Institute, Inc., priority 2017, dated 2023)
Like-named read-outs stand apart in the source and are kept apart here.

Assays:
[1] = target: T1, recombinant PHD-bromodomain module of TRIM33 (Homo sapiens, UniProt Q9UPN9); assay: AlphaScreen binding assay, TRIM33 with biotinylated H3K9me3K18ac peptide
T1 construct: rows headed: TRIM33 modulating activity; unit not given
T1 sequence (Q9UPN9 1-1127): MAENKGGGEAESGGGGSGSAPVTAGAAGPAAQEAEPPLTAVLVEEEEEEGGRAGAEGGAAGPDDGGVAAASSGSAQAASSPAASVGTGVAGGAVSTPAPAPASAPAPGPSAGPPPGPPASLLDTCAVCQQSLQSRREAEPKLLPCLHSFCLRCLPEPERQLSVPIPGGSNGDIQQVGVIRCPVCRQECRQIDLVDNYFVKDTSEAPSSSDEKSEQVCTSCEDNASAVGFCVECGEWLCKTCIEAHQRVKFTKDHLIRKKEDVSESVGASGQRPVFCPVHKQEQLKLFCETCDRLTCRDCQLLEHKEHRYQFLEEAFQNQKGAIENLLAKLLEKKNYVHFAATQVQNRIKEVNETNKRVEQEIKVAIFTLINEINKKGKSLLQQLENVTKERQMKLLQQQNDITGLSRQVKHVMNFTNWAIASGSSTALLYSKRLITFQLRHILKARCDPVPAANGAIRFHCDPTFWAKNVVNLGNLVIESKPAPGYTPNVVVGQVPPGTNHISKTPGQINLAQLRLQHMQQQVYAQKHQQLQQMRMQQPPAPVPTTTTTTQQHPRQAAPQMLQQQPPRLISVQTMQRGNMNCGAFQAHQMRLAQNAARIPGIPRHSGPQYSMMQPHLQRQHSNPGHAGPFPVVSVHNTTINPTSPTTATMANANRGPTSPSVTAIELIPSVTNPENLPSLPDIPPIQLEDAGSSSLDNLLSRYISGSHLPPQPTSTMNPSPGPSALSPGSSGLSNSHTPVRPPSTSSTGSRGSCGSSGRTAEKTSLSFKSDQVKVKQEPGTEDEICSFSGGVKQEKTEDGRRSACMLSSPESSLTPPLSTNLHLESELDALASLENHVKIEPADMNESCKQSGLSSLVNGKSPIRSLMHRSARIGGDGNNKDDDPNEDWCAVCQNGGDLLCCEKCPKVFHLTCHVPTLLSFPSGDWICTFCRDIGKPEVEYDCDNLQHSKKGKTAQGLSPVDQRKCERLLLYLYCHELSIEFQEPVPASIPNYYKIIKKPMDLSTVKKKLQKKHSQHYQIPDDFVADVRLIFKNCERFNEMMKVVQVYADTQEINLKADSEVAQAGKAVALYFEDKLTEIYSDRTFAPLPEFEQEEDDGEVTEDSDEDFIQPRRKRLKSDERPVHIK
Source text: (§1) The IC50 or EC50 of the compound of the present application can be determined by various methods known in the art. For example, the IC50 or EC50 of the compound of the present application can be measured by an AlphaScreen assay, as described herein (see FIG. 1).
(§2) A compound of the present application can be tested for its TRIM33 and/or TRIM24 activity with AlphaScreen Assay illustrated in FIG. 1.
(§3) Additionally, a second AlphaScreen® binding assay for TRIM24 as counter-screening assay for selectivity of TRIM33 over TRIM24 was developed. A focused compound libraries for TRIM33 inhibitor development was designed and synthesized using the design principle that is to connect the bromodomain binding motif/fragment to proper chemical scaffold via multi-component reactions, such as Groebke-Blackburn-Bienaymé (GBB) coupling reaction, to establish chemically bias library.
(§4) With multiple libraries synthesized (˜400 compounds) as described above, compounds were screened against TRIM33 and TRIM24 by AlphaScreen to establish structure activity relationship (SAR).

[2] = test system: recombinant PHD-bromodomain module of TRIM33; assay: as above; settings: compounds shown in Table 2a
Source text: as §1, §2, §3, §4

TRIM24 = target: T2, TRIM24 (Homo sapiens, UniProt O15164); assay: AlphaScreen binding assay for TRIM24 (counter-screening assay)
T2 sequence (O15164 1-1050): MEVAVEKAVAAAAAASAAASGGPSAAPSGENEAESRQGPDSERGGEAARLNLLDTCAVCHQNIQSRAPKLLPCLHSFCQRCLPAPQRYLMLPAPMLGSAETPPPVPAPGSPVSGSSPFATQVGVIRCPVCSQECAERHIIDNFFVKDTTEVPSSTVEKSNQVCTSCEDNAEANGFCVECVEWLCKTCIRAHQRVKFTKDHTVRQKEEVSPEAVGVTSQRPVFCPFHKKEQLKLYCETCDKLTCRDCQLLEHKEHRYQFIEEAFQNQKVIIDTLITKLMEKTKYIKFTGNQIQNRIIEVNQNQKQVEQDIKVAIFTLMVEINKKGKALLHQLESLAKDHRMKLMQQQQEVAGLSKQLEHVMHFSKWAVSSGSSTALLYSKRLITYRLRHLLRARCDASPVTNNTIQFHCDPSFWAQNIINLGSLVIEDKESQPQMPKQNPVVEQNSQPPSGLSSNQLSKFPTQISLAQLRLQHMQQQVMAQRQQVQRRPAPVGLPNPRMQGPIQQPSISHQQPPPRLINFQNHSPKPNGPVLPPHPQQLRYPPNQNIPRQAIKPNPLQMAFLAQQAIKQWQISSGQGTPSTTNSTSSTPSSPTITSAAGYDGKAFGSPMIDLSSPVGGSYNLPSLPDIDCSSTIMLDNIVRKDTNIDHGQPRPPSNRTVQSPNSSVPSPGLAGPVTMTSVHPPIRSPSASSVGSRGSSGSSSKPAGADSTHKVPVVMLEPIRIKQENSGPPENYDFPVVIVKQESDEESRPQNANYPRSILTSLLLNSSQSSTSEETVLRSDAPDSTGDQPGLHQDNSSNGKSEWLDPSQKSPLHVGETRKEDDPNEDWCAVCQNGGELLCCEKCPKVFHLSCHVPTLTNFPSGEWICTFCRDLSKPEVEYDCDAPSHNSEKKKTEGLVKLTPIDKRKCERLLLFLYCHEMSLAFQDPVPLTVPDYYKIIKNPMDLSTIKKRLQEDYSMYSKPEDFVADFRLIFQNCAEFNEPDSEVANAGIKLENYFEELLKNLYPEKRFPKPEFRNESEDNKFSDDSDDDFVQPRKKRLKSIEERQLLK
Source text: as §2, §3, §4

[3] = compounds shown in Table 2a, called TRIM33 IC50 in title of Table 5, unit inferred, read-out: TRIM33 modulating activity
[4] = compounds with R7/R7′ shown in FIG. 11A (Table 6), read-out: IC50 TRIM24
[5] = compounds with R7/R7′ shown in FIG. 11A (Table 6), read-out: IC50 TRIM33
[6] = compounds shown in FIG. 13A (Table 7), read-out: TRIM 24 IC50
[7] = compounds shown in FIG. 13A (Table 7), read-out: TRIM 33 IC50
[8] = compounds shown in FIG. 14A (Table 8), read-out: TRIM 24 IC50
[9] = compounds shown in FIG. 14A (Table 8), read-out: TRIM 33 IC50

Row | IC50 [1, 3] | Ratio of TRIM24 IC50 over TRIM33 IC50 [2] | Compound | further results
1 | 116 µM | 0.78 | Cc1[nH]cnc1-c1nc2cnccn2c1NC1CCCCC1 [Compound B7] | 
2 | 24.9 µM | 60.92 | COc1ccc(CCNc2c(-c3ccc4nccn4c3)nc3ccccn23)cc1OC [Compound C2] | 
3 | 286 µM | 321.31 | COCCNc1c(-c2c[nH]c(C)n2)nc2cnccn12 [Compound A9] | 
4 | 12.6 µM | 29.84 | COC(=O)c1ccc2nc(-c3nc[nH]c3C)c(NCCc3ccc(OC)c(OC)c3)n2c1 [Compound F2] | 
5 | 269 µM |  | COc1ccc(CCNc2c(-c3c[nH]c(C)n3)nc3cnccn23)cc1OC [Compound A8] | 
6 | 44.2 µM | 1276.41 | COc1ccc(CCNc2c(-c3nc[nH]c3C)nc3cnccn23)cc1OC [Compound B8] | IC50 (TRIM24; [4]): 0.225 µM; IC50 [1, 5]: 0.283 µM
7 | 77 µM | 37.43 | CCCOc1ccn2c(C(C)=O)cc(-c3nc4ccc(C(=O)OC)cn4c3NCCOC)c2c1 [Compound H3] | 
8 |  |  | COc1ccc(Nc2c(-c3c[nH]c(C)n3)nc3ccc(Br)cn23)cc1 [pck-9295-016] | IC50 (TRIM24; [6]): 0.818 µM; IC50 [1, 7]: 0.538 µM
9 |  |  | COCCNc1c(-c2ccco2)nc2ccc(C(=O)OC)cn12 [pck-9295-032] | IC50 [1, 7]: 21.8 µM
10 |  |  | CC(C)(C)Nc1c(-c2c(O)ccc3ccccc23)nc2ccccn12 [pck-9295-029] | IC50 (TRIM24; [6]): 7.76 µM; IC50 [1, 7]: 7.45 µM
11 |  |  | COc1ccc(CCNc2c(-c3cn(S(=O)(=O)c4ccc(C)cc4)c4ccccc34)nc3ccccn23)cc1OC [pck-9295-174] | IC50 (TRIM24; [8]): 0.584 µM; IC50 [1, 9]: 0.553 µM
12 | 10.6 µM |  | CCCOc1cc(OCCCCN(C)C)cc(Oc2cc3c(cc2NS(=O)(=O)c2ccc(OC)c(OC)c2)n(C)c(=O)n3C)c1 [IACS9571, reference compound] | IC50 [1, 9]: 6.32 µM; IC50 [1, 5]: 13.4 µM
13 | 12.2 µM | 463.20 | CCCOc1ccn2c(C(C)=O)cc(-c3nc4ccc(C(=O)OC)cn4c3NCCc3ccc(OC)c(OC)c3)c2c1 [Compound H2] | 
14 |  |  | COc1ccc(Nc2c(-c3nc[nH]c3C)nc3ccccn23)cc1 [pck-9295-014] | IC50 (TRIM24; [6]): 0.356 µM; IC50 [1, 7]: 0.641 µM
15 | 50.9 µM |  | CCCOc1ccn2c(C(C)=O)cc(-c3ccccc3S(C)(=O)=O)c2c1 [GS-A, reference compound] | 
16 |  |  | Cc1nc[nH]c1-c1nc2ccc(C(=O)NN)cn2c1NCCN1CCOCC1 [pck-9295-134] | IC50 (TRIM24; [8]): 0.303 µM; IC50 [1, 9]: 1.29 µM
17 |  |  | Cc1sc2c(c1C)C(c1ccc(Cl)cc1)=N[C@@H](CC(=O)NCCCCCCCCNC(=O)COc1cccc3c1C(=O)N(C1CCC(=O)NC1=O)C3=O)c1nnc(C)n1-2 (stereo partly drawn) [dBET6, reference compound] | IC50 (TRIM24; [4]): 1.96 µM; IC50 [1, 5]: 4.69 µM

Row | IC50 [1, 3] | Ratio of TRIM24 IC50 over TRIM33 IC50 [2] | Compound | further results
18 | 37 µM | 3.62 | COCCNc1c(-c2nc[nH]c2C)nc2ccc(Br)cn12 [Compound F9] | 
19 | 1.36 µM | 32.77 | COc1ccc(CCNc2c(-c3c[nH]c(C)n3)nc3ccccn23)cc1OC [Compound A2] | 
20 |  |  | COC(=O)c1ccc2nc(-c3nc[nH]c3C)c(NCCN3CCOCC3)n2c1 [pck-9295-060] | IC50 (TRIM24; [8]): 0.308 µM; IC50 [1, 9]: 1.93 µM
21 | 3.46 µM | 18.38 | COc1ccc(CCNc2c(-c3c[nH]c(C)n3)nc3ccc(Br)cn23)cc1OC [Compound E8] | 
22 |  |  | CCOC(=O)CNc1c(-c2ccco2)nc2ccc(C(=O)OC)cn12 [pck-9295-035] | IC50 (TRIM24; [6]): 5.25 µM; IC50 [1, 7]: 10.8 µM
23 | 44 µM | 11.61 | COCCNc1c(-c2nc[nH]c2C)nc2ccc(C(=O)OC)cn12 [Compound F3] | 
24 | 138 µM | 20.66 | CCCOc1ccn2c(C(C)=O)cc(-c3nc4cnccn4c3NCCOC)c2c1 [Compound D9] | 
25 |  |  | COc1ccc(CCNc2c(-c3nc(C)n4ccccc34)nc3ccccn23)cc1OC [pck-9295-173] | IC50 (TRIM24; [8]): 9.44 µM; IC50 [1, 9]: 44.3 µM
26 | 214 µM | 6.43 | Brc1ccc2nc(-c3ccc4nccn4c3)c(NCCN3CCOCC3)n2c1 [Compound G10] | 
27 |  |  | COC(=O)c1ccc2nc(-c3cn(S(=O)(=O)c4ccc(C)cc4)c4ccccc34)c(NCc3ccccc3)n2c1 [pck-9295-175] | IC50 (TRIM24; [8]): 0.415 µM; IC50 [1, 9]: 0.32 µM
28 | 121 µM | 0.83 | Brc1ccc2nc(-c3ccc4nccn4c3)c(NC3CCCCC3)n2c1 [Compound G7] | 
29 | 26.2 µM | 4.48 | Cc1[nH]cnc1-c1nc2ccc(Br)cn2c1NCCN1CCOCC1 [Compound F10] | 
30 | 18.1 µM | 7.89 | COC(=O)c1ccc2nc(-c3nc[nH]c3C)c(NC3CCCCC3)n2c1 [Compound F1] | 
31 | 357 µM | 78.61 | COCCNc1c(-c2ccc3nccn3c2)nc2ccc(C(=O)OC)cn12 [Compound G3] | 
32 |  |  | Cc1[nH]cnc1-c1nc2ccccn2c1NCCN1CCOCC1 [pck-9295-013] | IC50 (TRIM24; [6]): 0.746 µM; IC50 [1, 7]: 3.78 µM
33 | 32.6 µM | 7.82 | CCCOc1ccn2c(C(C)=O)cc(-c3nc4ccc(C(=O)OC)cn4c3NC3CCCCC3)c2c1 [Compound H1] | 
